Data reported in US5753631A, “Intercellular adhesion mediators” (Cytel Corporation, priority 1995, dated 1998).

Legend:
P-Selectin [1] = target: T1, P-Selectin (Homo sapiens, UniProt P16109); assay: Inhibition of neutrophil adhesion to thrombin activated platelets by glycolipids in liposomes; format: cell-based; settings: for IC50: read-out: AMOUNT REQUIRED FOR 50% INHIBITION
T1 construct: endogenous in cells
T1 sequence (P16109 42-830): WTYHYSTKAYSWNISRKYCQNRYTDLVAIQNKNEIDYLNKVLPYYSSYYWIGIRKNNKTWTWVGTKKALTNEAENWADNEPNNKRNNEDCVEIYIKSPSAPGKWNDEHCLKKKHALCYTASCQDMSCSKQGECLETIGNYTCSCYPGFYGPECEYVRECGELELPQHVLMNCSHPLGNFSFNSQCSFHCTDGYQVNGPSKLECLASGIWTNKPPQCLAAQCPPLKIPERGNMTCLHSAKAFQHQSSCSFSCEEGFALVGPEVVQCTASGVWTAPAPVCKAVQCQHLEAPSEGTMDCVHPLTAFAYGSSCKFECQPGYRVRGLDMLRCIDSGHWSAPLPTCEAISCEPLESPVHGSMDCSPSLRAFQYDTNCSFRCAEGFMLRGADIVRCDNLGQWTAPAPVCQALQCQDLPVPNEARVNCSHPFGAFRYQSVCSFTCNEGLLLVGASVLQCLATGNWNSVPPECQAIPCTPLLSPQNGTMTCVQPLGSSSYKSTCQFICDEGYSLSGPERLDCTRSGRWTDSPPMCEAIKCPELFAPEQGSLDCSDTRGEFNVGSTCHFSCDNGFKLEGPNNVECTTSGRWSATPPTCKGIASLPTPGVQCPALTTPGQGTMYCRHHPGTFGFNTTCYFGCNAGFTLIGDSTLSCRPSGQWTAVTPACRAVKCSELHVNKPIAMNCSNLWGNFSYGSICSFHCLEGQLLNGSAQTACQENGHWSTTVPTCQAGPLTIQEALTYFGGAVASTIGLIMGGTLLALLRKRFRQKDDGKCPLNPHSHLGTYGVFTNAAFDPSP
Protocol: 3. For the assay, 20 μl of the platelet suspension (2×10^8 /ml) was placed in a microcentrifuge tube. […] Twenty μl of the neutrophil preparation (2×10^6 /ml) was then added and the tubes were allowed to stand for a further 20 min at room temperature.
(§1) 4. Adhesion of activated platelets to the neutrophils was assessed microscopically. One hundred neutrophils were evaluated. They were scored as positive if 2 or more platelets were attached and negative if less than 2 platelets were bound. The percent of cells with 2 or more bound platelets was calculated.
This example describes experiments testing various glycolipid structures on liposomes. In particular, SY2, a sialylated polysaccharide in which the fucose, instead of being attached to the ultimate GlcNAc as in SLe^x, is attached to the penultimate GlcNAc, was tested. Platelets and neutrophils were isolated by the methods described above. Platelets were activated with thrombin and then incubated with dilutions of various glycolipids embedded in liposomes prepared as described above. Neutrophils were added and the effect of the glycolipids on the adhesion of neutrophils to activated platelets was determined.
Structures of the various glycolipids examined are as follows: SDiY2, NeuGcα2,3Galβ1,4(Fucα1,3)GlcNacβ1,3Galβ1,4 (Fucα1,3)GlcNAcβ1,3Galβ1,4Glcβ1,1Cer; SLe^x, NeuGcα2,3Galβ1,4 (Fucα1,3)GlcNAcβ1,3Galβ1,4Glcβ1,1Cer; SY2, NeuGcα2,3Galβ1,4 GlcNAcβ1,3Galβ1,4(Fucα1,3)GlcNAcβ1,3Galβ1,4Glcβ1,1Cer; SH, NeuGcα2,3Galβ1,4GlcNAcβ1,3Galβ1,4GlcNAcβ1,3Galβ1,4Glcβ1,1Cer; SPG, NeuGcα2,3Galβ1,4GlcNAcβ1,3Galβ1,4Glcβ1,1Cer.
All materials were prepared as described above. Platelets and neutrophils were isolated by the methods described. Platelets were activated with thrombin and then incubated with dilutions of various glycolipids contained in liposomes. Neutrophils were added and the effect of the glycolipids on the adhesion of neutrophils to activated platelets was determined.
The results of an experiment in which synthetic SLe^x (NeuAc) and a preparation of SLe^x prepared by enzymatic fucosylation of sialylparagloboside purified from bovine erythrocytes, SLe^x (NeuGc), were directly compared are shown in Table 4.

P-Selectin [2] = target: T1, P-Selectin; assay: Oligosaccharide/polysaccharide inhibition of neutrophil adhesion to thrombin activated platelets; format: cell-based; settings: read-out: AMOUNT REQUIRED FOR 50% INHIBITION (converted)
Protocol: (§2) Briefly, platelets and neutrophils were isolated by the methods described above. Platelets were activated with thrombin and then incubated with dilutions of various oligosaccharides. Neutrophils were added, and the effect of the saccharides on the adhesion of neutrophils to activated platelets was determined.
1. Platelets were isolated as described above and were activated (2×10^8 /ml) by incubation for 20 min at room temperature with thrombin at a final concentration of 0.25 U/ml.
2. Neutrophils were isolated by layering heparinized blood over Mono-Poly Resolving Medium (Ficoll-Hypaque-Flow Laboratories), followed by centrifugation for 25 min at 2000 rpm and then, a further 25 min at 2500 rpm as described above.
3. For the assay, 20 μl of the platelet suspension (2×10^8 /ml) was placed in a microcentrifuge tube. An equal volume of the oligosaccharide preparations at concentrations from 200 μg/ml to 0.3 μg/ml, or of glycolipid-liposome preparations (prepared as described above), at concentrations from 2 μg/ml to 0.25 μg/ml, was added and the tubes were allowed to stand at room temperature for 20 min. Twenty μl of the neutrophil preparation (2×10^6 /ml) was then added and the tubes were allowed to stand for a further 20 min at room temperature.
as §1
as §2, with “added” for “added,”
Platelets were isolated as described above and were activated (2×10^8 /ml) by incubation for 20 min at room temperature with thrombin at a final concentration of 0.25 U/ml.
Neutrophils were isolated by layering heparinized blood over Mono-Poly Resolving Medium (Ficoll-Hypaque, Flow Laboratories), followed by centrifugation for 25 min at […] and then, a further 25 min at 2500 rpm as described above.
For the assay, 20 μl of the platelet suspension (2×10^8 /ml) was placed in an Eppendorf centrifuge tube. An equal volume of the oligosaccharide preparations at concentrations from 500 μg/ml to 2.0 μg/ml was added and the tubes were allowed to stand at room temperature for 20 min. Twenty […] of the neutrophil preparation (2×10^6 /ml) was then added and the tubes were allowed to stand for a further 20 min at room temperature.
as §1, with “Adhesion” for “4. Adhesion”

[3] = Table 3, experiment not specified

Molecule: NeuGcα2,3Galβ1,4GlcNAcβ1,3Galβ1,4Glcβ1,1Cer [SPG, reference compound]
- AMOUNT REQUIRED FOR 50% INHIBITION (P-Selectin [1]; [3]): No Inh.

Molecule: NeuGcα2,3Galβ1,4GlcNAcβ1,3Galβ1,4GlcNAcβ1,3Galβ1,4Glcβ1,1Cer [SH, reference compound]
- AMOUNT REQUIRED FOR 50% INHIBITION (P-Selectin [1]; [3]): No Inh.

Molecule: NeuGcα2,3Galβ1,4 GlcNAcβ1,3Galβ1,4(Fucα1,3)GlcNAcβ1,3Galβ1,4Glcβ1,1Cer [SY2]
- IC50 (P-Selectin [1]; Table 3, Exp 1): 325 nM
- IC50 (P-Selectin [1]; Table 3, Exp 2): 345 nM
- inhibition of P-Selectin mediated adhesion of neutrophils to thrombin activated platelets (P-Selectin [1]; in words, relative): equally as well as did SLe^x and SDiY2

Molecule: CC(=O)N[C@H]1[C@H]([C@H](O)[C@H](O)CO)O[C@@](O[C@H]2[C@@H](O)[C@@H](CO)O[C@@H](O[C@H]3[C@H](O[C@@H]4O[C@@H](C)[C@@H](O)[C@@H](O)[C@@H]4O)[C@@H](NC(C)=O)C(O)O[C@@H]3CO)[C@@H]2O)(C(=O)O)C[C@@H]1O (stereo partly drawn) [SLe^x (NeUAc)]
- IC50 (P-Selectin [1]; Table 4): 670 nM

Molecule: NeuGcα2,3Galβ1,4(Fucα1,3)GlcNacβ1,3Galβ1,4 (Fucα1,3)GlcNAcβ1,3Galβ1,4Glcβ1,1Cer [SdiY2]
- IC50 (P-Selectin [1]; [3]): 360 nM

Molecule: CC(=O)N[C@H]1[C@H](O[C@H]2[C@@H](O)[C@@H](CO)O[C@@H](O[C@H]3[C@H](O)[C@@H](O)C(O)O[C@@H]3CO)[C@@H]2O)O[C@H](CO)[C@@H](O[C@@H]2O[C@H](CO)[C@H](O)[C@H](O)[C@H]2O)[C@@H]1O[C@@H]1O[C@@H](C)[C@@H](O)[C@@H](O)[C@@H]1O (stereo partly drawn) [LNF III (Le^x), reference compound]
- IC50 (P-Selectin [2]; Table 6): 41000 nM

Molecule: CC(=O)N[C@H]1[C@H](O[C@@H]2[C@@H](O)[C@H](O)O[C@H](CO)[C@@H]2O)O[C@H](CO)[C@@H](O[C@@H]2O[C@H](CO)[C@H](O)[C@H](O[C@]3(C(=O)O)C[C@H](O)[C@@H](NC(C)=O)[C@H]([C@H](O)[C@H](O)CO)O3)[C@H]2O)[C@@H]1O[C@@H]1O[C@@H](C)[C@@H](O)[C@@H](O)[C@@H]1O [SLe^x (penta), NeuAcα2,3Galβ1,4-(Fucα1,3)GlcNacβ1,3Galβ]
- IC50 (P-Selectin [2]; Table 2, mean of three identical experiments): 2200 nM
